Test results as given in PMC8597046, “Use of Mixture Dosing and Nonlinear Mixed Effect Modeling of Eight Environmental Contaminants in Rabbits to Improve Extrapolation Value of Toxicokinetic Data” (Environmental Health Perspectives, 2021).

How the values were obtained:
[1] = TK assay, intravenous mixture dosing: serum concentrations and noncompartmental analysis (sparse data); details: female, rabbit, in vivo, iv; for Vd: IV mixture dosing, NCA, n=12
Procedure, shortened: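 Female New Zealand white rabbits received a compound mixture IV via ear-vein catheter; serum sampled sparsely (3 rabbits/time point) from 15 min to 28 d. Noncompartmental sparse-data analysis on mean profiles: linear-trapezoidal AUC, CL as dose/AUC0−inf, half-life from λZ, MRT and VSS.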

[2] = TK assay, oral mixture dosing: serum concentrations and noncompartmental analysis (sparse data); details: female, rabbit, in vivo, po
Procedure, shortened: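 Female New Zealand white rabbits (10-wk, 2.37±0.14kg) got the compound mixture IV via ear-vein catheter or orally into the mouth; serum sampled 15 min to 28 d, 3 (or 6 at 30 min) rabbits per time. Sparse-data noncompartmental analysis gave AUC (linear trapezoidal), CL or CL_F, half-life and F.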

[3] = Chronic exposure: daily oral mixture for 17 wk, steady-state serum concentrations; details: female, New Zealand white (INRA 1777 line), rabbit, in vivo, po
Procedure, shortened: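 Female New Zealand white rabbits (INRA 1777 line, 2 wk old, n=16 treated, 16 vehicle controls) received an oral eight-compound mixture: loading plus maintenance dose, then daily maintenance dose for 17 wk. Dosing volume 1mL/kg adjusted weekly to predicted BW; serum obtained after clotting and centrifugation, stored at −20°C.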

[4] = rodents; ref Kudo and Kawashima 2003; cited from earlier work
[5] = New Zealand white (INRA 1777 line)

## O=C(O)C(F)(F)C(F)(F)C(F)(F)C(F)(F)C(F)(F)C(F)(F)C(F)(F)F [PFOA, perfluorooctanoic acid]
[1]; [5]
  AUC(0-inf): 27.4 µM·h
  Cmax: 2330 nM
  MRT: 18.7 h
  clearance: 0.121 mL/min/kg
  half-life: 31.8 h
[1]; New Zealand white (INRA 1777 line), VSS
  Vd: 0.135 L/kg
[1]; New Zealand white (INRA 1777 line), VZ
  Vd: 0.332 L/kg
[1]; New Zealand white, Serum concentration, rabbit 1, 0.30 h
  concentration at 0.3 h: 1870 nM
[1]; New Zealand white, Serum concentration, rabbit 1, 4.38 h
  concentration at 4.38 h: 1070 nM
[1]; New Zealand white, Serum concentration, rabbit 1, 24.03 h
  concentration at 24.03 h: 240 nM
[1]; New Zealand white, Serum concentration, rabbit 2, 0.28 h
  concentration at 0.28 h: 2100 nM
[1]; New Zealand white, Serum concentration, rabbit 2, 4.05 h
  concentration at 4.05 h: 1020 nM
[1]; New Zealand white, Serum concentration, rabbit 2, […]
  concentration at 24 h: 160 nM
[1]; New Zealand white, Serum concentration, rabbit 3, 0.35 h
  concentration at 0.35 h: 2330 nM
[1]; New Zealand white, Serum concentration, rabbit 3, 4.05 h
  concentration at 4.05 h: 1450 nM
[1]; New Zealand white, Serum concentration, rabbit 3, […]
  concentration at 24 h: 290 nM
[1]; New Zealand white, Serum concentration, rabbit 4, 0.62 h
  concentration at 0.62 h: 1700 nM
[1]; New Zealand white, Serum concentration, rabbit 4, 72.00 h
  concentration at 72 h: 60 nM
[1]; New Zealand white, Serum concentration, rabbit 5, 0.75 h
  concentration at 0.75 h: 1860 nM
[1]; New Zealand white, Serum concentration, rabbit 5, 72.03 h
  concentration at 72.03 h: 34 nM
[1]; New Zealand white, Serum concentration, rabbit 6, 0.57 h
  concentration at 0.57 h: 1670 nM
[1]; New Zealand white, Serum concentration, rabbit 6, 71.97 h
  concentration at 71.97 h: 31 nM
[1]; New Zealand white, Serum concentration, rabbit 7, 11.98 h
  concentration at 11.98 h: 840 nM
[1]; New Zealand white, Serum concentration, rabbit 7, 168.00 h
  concentration at 168 h: 5.3 nM
[1]; New Zealand white, Serum concentration, rabbit 8, 12.02 h
  concentration at 12.02 h: 520 nM
[1]; New Zealand white, Serum concentration, rabbit 8, 167.92 h
  concentration at 167.92 h: 4.3 nM
[1]; New Zealand white, Serum concentration, rabbit 9, 11.97 h
  concentration at 11.97 h: 590 nM
[1]; New Zealand white, Serum concentration, rabbit 9, 168.00 h
  concentration at 168 h: 3 nM
[1]; New Zealand white, Serum concentration, rabbit 10, 671.96 h
  concentration at 671.96 h: < 0.24 nM
[1]; New Zealand white, Serum concentration, rabbit 11, 672.00 h
  concentration at 672 h: < 0.24 nM
[1]; New Zealand white, Serum concentration, rabbit 12, 671.83 h
  concentration at 671.83 h: < 0.24 nM
[2]; [5]
  AUC(0-inf): 169 µM·h
  CL/F: 0.0953 mL/min/kg
  Cmax: 9070 nM
  MRT: 25.9 h
  Tmax: 4.05 h
  Vd/F: 0.64 L/kg
  bioavailability: > 100%
  half-life: 77.6 h
[2]; New Zealand white (INRA 1777 line), Serum concentration, oral, rabbit 13, 4.30 h, MEHP after oral DEHP
  concentration at 4.3 h: 6040 nM
[2]; New Zealand white (INRA 1777 line), Serum concentration, oral, rabbit 13, […], MEHP after oral DEHP
  concentration at 24 h: 2510 nM
[2]; New Zealand white (INRA 1777 line), Serum concentration, oral, rabbit 14, 0.37 h, MEHP after oral DEHP
  concentration at 0.37 h: 4790 nM
[2]; New Zealand white (INRA 1777 line), Serum concentration, oral, rabbit 14, 4.17 h, MEHP after oral DEHP
  concentration at 4.17 h: 6700 nM
[2]; New Zealand white (INRA 1777 line), Serum concentration, oral, rabbit 14, […], MEHP after oral DEHP
  concentration at 24 h: 1530 nM
[2]; New Zealand white (INRA 1777 line), Serum concentration, oral, rabbit 15, 4.05 h, MEHP after oral DEHP
  concentration at 4.05 h: 9070 nM
[2]; New Zealand white (INRA 1777 line), Serum concentration, oral, rabbit 15, 23.98 h, MEHP after oral DEHP
  concentration at 23.98 h: 2340 nM
[2]; New Zealand white (INRA 1777 line), Serum concentration, oral, rabbit 21, 12.00 h, MEHP after oral DEHP
  concentration at 12 h: 3940 nM
[2]; New Zealand white (INRA 1777 line), Serum concentration, rabbit 21, 168.00 h
  concentration at 168 h: 9.3 nM
[2]; New Zealand white (INRA 1777 line), Serum concentration, rabbit 22, 672.02 h
  concentration at 672.02 h: 0.5 nM
[2]; New Zealand white (INRA 1777 line), Serum concentration, rabbit 23, 671.96 h
  concentration at 671.96 h: 0.26 nM
[2]; New Zealand white (INRA 1777 line), Serum concentration, rabbit 24, 672.02 h
  concentration at 672.02 h: 0.49 nM
[2]; New Zealand white, Serum concentration, oral, rabbit 16, 0.55 h, MEHP after oral DEHP
  concentration at 0.55 h: 2520 nM
[2]; New Zealand white, Serum concentration, oral, rabbit 16, 72.00 h, MEHP after oral DEHP
  concentration at 72 h: 110 nM
[2]; New Zealand white, Serum concentration, oral, rabbit 17, 0.53 h, MEHP after oral DEHP
  concentration at 0.53 h: 2350 nM
[2]; New Zealand white, Serum concentration, oral, rabbit 17, 72.00 h, MEHP after oral DEHP
  concentration at 72 h: 230 nM
[2]; New Zealand white, Serum concentration, oral, rabbit 18, 0.55 h, MEHP after oral DEHP
  concentration at 0.55 h: 4200 nM
[2]; New Zealand white, Serum concentration, oral, rabbit 18, 71.96 h, MEHP after oral DEHP
  concentration at 71.96 h: 78 nM
[2]; New Zealand white, Serum concentration, oral, rabbit 19, 12.00 h, MEHP after oral DEHP
  concentration at 12 h: 4880 nM
[2]; New Zealand white, Serum concentration, oral, rabbit 20, 12.00 h, MEHP after oral DEHP
  concentration at 12 h: 3200 nM
[2]; New Zealand white, Serum concentration, rabbit 19, 168.02 h
  concentration at 168.02 h: 32 nM
[2]; New Zealand white, Serum concentration, rabbit 20, 168.00 h
  concentration at 168 h: 5 nM
[3]
  concentration at 17 wk: 43 ± 9.4 ng/mL
[4]
  Intestinal absorption: 93%
